According to patent publication US20040146872A1, “Fat regulated genes, uses thereof and compounds for modulating same” (priority 2003, published 2004):

Experiments:
Type in all cases: in vivo
SCD2 = experiment: Northern blot quantification of SCD2 mRNA in liver of rats fed PUFA-supplemented fat free diet; conditions: rat liver RNA; female Wistar rats, fat free diet 2 weeks, then fatty acid 5% (w/w) in diet 2 weeks; ± standard deviation of three rats; normalized for 18S; fat free = 100
Description: (§1) The present inventors have identified genes that were modulated or regulated by dietary fat using a differential display technique (Liang P. and Pardee A. B., 1992, Science, 257: 967-971). Groups of female Wistar rats were fed fat free diet for two weeks. After two weeks all groups but one (controls) were supplemented with highly purified PUFAs for an additional two weeks. The rats were sacrificed and tissues were removed to obtain RNA for differential display and Northern blotting. Differential display identified genes regulated by dietary fat by comparing mRNA populations from rat liver. For the study, the rats were divided into six groups and fed fat free diet for 14 days. Each group was fed fat free diet for an additional two weeks with the following supplements: group 1-no supplement (fat free control); group 2-linoleic acid (LA, 18:2n-6); group 3-gamma-linolenic acid (GLA, 18:3n-6); group 4-alpha-linolenic acid (ALA, 18:3n-3); group 5-eicosapentaenoic acid (EPA, 20:5n-3) and group 6-docosahexaenoic acid (DHA, 22:6n-3). Fatty acids were administered in the diet at a fatty acid-specific concentration of 5% (w/w), as described in Example 1. The rats were fed ad libitum. […] The rats were randomly divided into 6 groups and fed fat free diet (Teklad #94013). After 2 weeks, groups 2-6 were fed diets supplemented with highly purified polyunsaturated fatty acids for an additional 2 weeks. The concentration of the specific fatty acid used for each group was 5% (w/w) of the total diet preparation. The experimental design is provided below. Diets were prepared by mixing the oils into the fat free diet. The mixed diet was stored at -20° C. under a nitrogen atmosphere to prevent fatty acid oxidation. Dietary feedings were provided at the same time each day. Diet preparations are shown below. Rats ([…]) were sacrificed via cardiac puncture under anesthesia. The livers were perfused with saline, excised and frozen in liquid nitrogen in preparation for RNA extraction. Total RNA from 0.4 g of each liver was isolated as per manufacturer's protocol using Trizol Reagent (Gibco BRL). In order to remove contaminating genomic DNA, the RNA sample was incubated with RQ1 RNase-free DNase (Promega) for 30 minutes at 37° C. The RNA was subsequently precipitated and resuspended to a final concentration of 0.5 mg/ml. To confirm the expression pattern of the genes as discovered in the differential display experiment and to determine the transcript size of these genes, Northern blot analysis was performed. […] The transfer of the RNA onto the membrane was verified by methylene blue staining. […] The Northern blot was performed following the protocol in Ausubel et al., 1994-, Current Protocols in Molecular Biology, John Wiley & Sons, NY. […]

METP = experiment: Northern blot quantification of METP mRNA in liver of rats fed PUFA-supplemented fat free diet; conditions: rat liver RNA; female Wistar rats, fat free diet 2 weeks, then fatty acid 5% (w/w) in diet 2 weeks; ± standard deviation of three rats; normalized for 18S; EPA = 100, fat free = 10 ± 5
Description: as §1

FAS = experiment: Northern blot quantification of FAS mRNA in liver of rats fed PUFA-supplemented fat free diet; conditions: rat liver RNA; female Wistar rats, fat free diet 2 weeks, then fatty acid 5% (w/w) in diet 2 weeks; ± standard deviation of three rats; normalized for 18S; fat free = 100
Description: as §1

Spot-14 = experiment: Northern blot quantification of Spot-14 mRNA in liver of rats fed PUFA-supplemented fat free diet; conditions: rat liver RNA; female Wistar rats, fat free diet 2 weeks, then fatty acid 5% (w/w) in diet 2 weeks; ± standard deviation of three rats; normalized for 18S; fat free = 100
Description: as §1

SCD1 = experiment: Northern blot quantification of SCD1 mRNA in liver of rats fed PUFA-supplemented fat free diet; conditions: rat liver RNA; female Wistar rats, fat free diet 2 weeks, then fatty acid 5% (w/w) in diet 2 weeks; ± standard deviation of three rats; normalized for 18S; fat free = 100
Description: The present inventors have identified genes that were modulated or regulated by dietary fat using a differential display technique (Liang P. and Pardee A. B., 1992, Science, 257: 967-971). Groups of female Wistar rats were fed fat free diet for two weeks. After two weeks all groups but one (controls) were supplemented with highly purified PUFAs for an additional two weeks. The rats were sacrificed and tissues were removed to obtain RNA for differential display and Northern blotting. Differential display identified genes regulated by dietary fat by comparing mRNA populations from rat liver. For the study, the rats were divided into six groups and fed fat free diet for 14 days. Each group was fed fat free diet for an additional two weeks with the following supplements: group 1-no supplement (fat free control); group 2-linoleic acid (LA, 18:2n-6); group 3-gamma-linolenic acid (GLA, 18:3n-6); group 4-alpha-linolenic acid (ALA, 18:3n-3); group 5-eicosapentaenoic acid (EPA, 20:5n-3) and group 6-docosahexaenoic acid (DHA, 22:6n-3). Fatty acids were administered in the diet at a fatty acid-specific concentration of 5% (w/w), as described in Example 1. The rats were fed ad libitum. […] The rats were randomly divided into 6 groups and fed fat free diet (Teklad #94013). After 2 weeks, groups 2-6 were fed diets supplemented with highly purified polyunsaturated fatty acids for an additional 2 weeks. The concentration of the specific fatty acid used for each group was 5% (w/w) of the total diet preparation. The experimental design is provided below. Diets were prepared by mixing the oils into the fat free diet. The mixed diet was stored at -20° C. under a nitrogen atmosphere to prevent fatty acid oxidation. Dietary feedings were provided at the same time each day. Diet preparations are shown below. Rats ([…]) were sacrificed via cardiac puncture under anesthesia. The livers were perfused with saline, excised and frozen in liquid nitrogen in preparation for RNA extraction. Total RNA from 0.4 g of each liver was isolated as per manufacturer's protocol using Trizol Reagent (Gibco BRL). […]

COMT = experiment: Northern blot quantification of COMT mRNA in liver of rats fed PUFA-supplemented fat free diet; conditions: rat liver RNA; female Wistar rats, fat free diet 2 weeks, then fatty acid 5% (w/w) in diet 2 weeks; ± standard deviation of three rats; normalized for 18S; fat free = 100
Description: as §1

[1] = tested on: delta-3, delta-2-enoyl-CoA isomerase; experiment: Northern blot quantification of delta-3, delta-2-enoyl-CoA isomerase mRNA in liver of rats fed PUFA-supplemented fat free diet; conditions: rat liver RNA; female Wistar rats, fat free diet 2 weeks, then fatty acid 5% (w/w) in diet 2 weeks; ± standard deviation of three rats; normalized for 18S; EPA = 100, fat free = 14 ± 18
Description: as §1

A1BG = experiment: Northern blot quantification of A1BG mRNA in liver of rats fed PUFA-supplemented fat free diet; conditions: rat liver RNA; female Wistar rats, fat free diet 2 weeks, then fatty acid 5% (w/w) in diet 2 weeks; ± standard deviation of three rats; not normalized for 18S; DHA = 100, fat free = 7 ± 9
Description: as §1

FTF1 = experiment: Northern blot quantification of FTF1 mRNA in liver of rats fed PUFA-supplemented fat free diet; conditions: rat liver RNA; female Wistar rats, fat free diet 2 weeks, then fatty acid 5% (w/w) in diet 2 weeks; ± standard deviation of three rats; not normalized for 18S; fat free = 100
Description: as §1

GLOL = experiment: Northern blot quantification of GLOL mRNA in liver of rats fed PUFA-supplemented fat free diet; conditions: rat liver RNA; female Wistar rats, fat free diet 2 weeks, then fatty acid 5% (w/w) in diet 2 weeks; ± standard deviation of three rats; normalized for 18S; fat free = 100
Description: as §1

G6PD = experiment: Northern blot quantification of G6PD mRNA in liver of rats fed PUFA-supplemented fat free diet; conditions: rat liver RNA; female Wistar rats, fat free diet 2 weeks, then fatty acid 5% (w/w) in diet 2 weeks; ± standard deviation of three rats; not normalized for 18S; fat free = 100
Description: as §1

GPAT = experiment: Northern blot quantification of GPAT mRNA in liver of rats fed PUFA-supplemented fat free diet; conditions: rat liver RNA; female Wistar rats, fat free diet 2 weeks, then fatty acid 5% (w/w) in diet 2 weeks; ± standard deviation of three rats; normalized for 18S; fat free = 100
Description: as §1

ApoA-1 = experiment: Northern blot quantification of ApoA-1 mRNA in liver of rats fed PUFA-supplemented fat free diet; conditions: rat liver RNA; female Wistar rats, fat free diet 2 weeks, then fatty acid 5% (w/w) in diet 2 weeks; ± standard deviation of three rats; normalized for 18S; fat free = 100
Description: as §1

INSIG1 = experiment: Northern blot quantification of INSIG1 mRNA in liver of rats fed PUFA-supplemented fat free diet; conditions: rat liver RNA; female Wistar rats, fat free diet 2 weeks, then fatty acid 5% (w/w) in diet 2 weeks; ± standard deviation of three rats; normalized for 18S; fat free = 100
Description: as §1

[2] = tested on: mRNA populations from rat liver; experiment: Differential display of mRNA populations from liver of rats fed PUFA-supplemented fat free diet; conditions: preliminary differential display studies
Description: The present inventors have identified genes that were modulated or regulated by dietary fat using a differential display technique (Liang P. and Pardee A. B., 1992, Science, 257: 967-971). Groups of female Wistar rats were fed fat free diet for two weeks. After two weeks all groups but one (controls) were supplemented with highly purified PUFAs for an additional two weeks. The rats were sacrificed and tissues were removed to obtain RNA for differential display and Northern blotting. Differential display identified genes regulated by dietary fat by comparing mRNA populations from rat liver. For the study, the rats were divided into six groups and fed fat free diet for 14 days. Each group was fed fat free diet for an additional two weeks with the following supplements: group 1—no supplement (fat free control); group 2—linoleic acid (LA, 18:2n-6); group 3—gamma-linolenic acid (GLA, 18:3n-6); group 4—alpha-linolenic acid (ALA, 18:3n-3); group 5—eicosapentaenoic acid (EPA, 20:5n-3) and group 6—docosahexaenoic acid (DHA, 22:6n-3). Fatty acids were administered in the diet at a fatty acid-specific concentration of 5% (w/w), as described in Example 1. The rats were fed ad libitum. The protocol used in the present differential display experiment is based on, and closely followed, the Clontech Delta Differential Display Kit (Clontech Catalog No. K1810-1). […]

| SMILES | quantification of the Northern blots, SCD2 (SCD2) | quantification of the Northern blots, METP (METP) | quantification of the Northern blots, FAS (FAS) | quantification of the Northern blots, Spot-14 (Spot-14) | quantification of the Northern blots, SCD1 (SCD1) | quantification of the Northern blots, COMT (COMT) | quantification of the Northern blots, delta-3, delta-2-enoyl-CoA isomerase [1] | quantification of the Northern blots, A1BG (A1BG) | quantification of the Northern blots, FTF1 (FTF1) | quantification of the Northern blots, GLOL (GLOL) | quantification of the Northern blots, G6PD (G6PD) | quantification of the Northern blots, GPAT (GPAT) | quantification of the Northern blots, ApoA-1 (ApoA-1) | quantification of the Northern blots, INSIG1 (INSIG1) | differences in differential display versus fat free control [2] |
| --- | --- | --- | --- | --- | --- | --- | --- | --- | --- | --- | --- | --- | --- | --- | --- |
| CC/C=C\C/C=C\C/C=C\C/C=C\C/C=C\C/C=C\CCC(=O)O [DHA, docosahexaenoic acid] | 4 ± 1% | 80 ± 28% | 27 ± 21% | 24 ± 18% | 1 ± 1% | 49 ± 3% | 87 ± 2% | 100 ± 64% | 13 ± 12% | 36 ± 17% | 19 ± 7% | 26 ± 15% | 12 ± 1% | 13 ± 11% |  |
| CC/C=C\C/C=C\C/C=C\C/C=C\C/C=C\CCCC(=O)O [EPA, eicosapentaenoic acid] | 2 ± 1% | 100 ± 16% | 17 ± 14% | 19 ± 25% |  | 50 ± 4% | 100 ± 35% | 32 ± 30% | 10 ± 7% | 29 ± 15% | 15 ± 14% | 14 ± 10% | 25 ± 4% | 25 ± 3% |  |
| CCCCC/C=C\C/C=C\C/C=C\CCCCC(=O)O [GLA, gamma-linolenic acid] | 11 ± 6% | 78 ± 12% | 17 ± 12% | 12 ± 7% | 6 ± 8% | 45 ± 23% | 33 ± 15% | 14 ± 10% | 4 ± 8% | 37 ± 11% | 8 ± 9% | 15 ± 13% | 32 ± 8% | 11 ± 2% |  |
| CCCCC/C=C\C/C=C\CCCCCCCC(=O)O [LA, linoleic acid] | 63 ± 15% | 37 ± 7% | 47 ± 40% | 50 ± 6% | 63 ± 20% | 59 ± 6% | 29 ± 27% | 52 ± 47% | 56 ± 15% | 64 ± 6% | 42 ± 27% | 52 ± 5% | 90 ± 23% | 49 ± 12% | no differences |
